Results published in patent US8242275B2, “Bicyclic pyrazole compounds as antibacterial agents” (Janssen Pharmaceutica NV, priority 2005, dated 2012).
Converted amounts (≈) assume the structure as drawn. Like-named read-outs stand apart in the source and are kept apart here.

How the values were obtained:
[1] = test system: MSSA ATCC 29213; experiment: Resistant strains assay (broth microdilution MIC); format: cell-based; settings: Staphylococcus aureus, read-out: MIC, Column B
Description: (§1) Compounds of the present invention were tested for activity against susceptible and resistant bacterial strains in vitro, and activity was compared to known anti-bacterial agents. Testing protocols followed NCCLS methodology for broth microdilution assays. MIC values in μg/mL are presented in Table 3 for the following strains: Column A: MSSA ATCC13709 (Smith); Column B: MSSA ATCC 29213; Column C: MRSA OC3726 (COL); Column D: MRSA OC2878.

[2] = test system: MSSA ATCC13709 (Smith); experiment: Resistant strains assay (broth microdilution MIC); format: cell-based; settings: Staphylococcus aureus
Description: as §1

[3] = test system: CipR MRSA OC3946; experiment: Resistant strains assay (broth microdilution MIC); format: cell-based; settings: Staphylococcus aureus, read-out: MIC, Column E
Description: as §1
MIC values in μg/mL are presented in Table 4 for the following strains: Column E: CipR MRSA OC3946; Column F: CipR MRSA OC4159; Column G: CipR MRSA OC4222; Column H: CipR MRSA OC5273.

[4] = test system: E. coli KL-16 (GSC strain 4245); experiment: In vitro antibacterial activity (MIC assay), broth microdilution; format: cell-based; settings: Escherichia coli
In short: (§2)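 Broth microdilution per NCCLS M7-A5: 11-point 2-fold compound dilutions from DMSO stocks, inoculum about 5×10^5 CFU/mL, incubation 35° C for 16–24 h. MIC scored visually against no-compound growth controls, in μg/mL.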

[5] = test system: S. aureus ATCC13709; experiment: as above; format: cell-based; settings: Staphylococcus aureus, ATCC13709; read-out: S. aureus ATCC13709 MIC
In short: as §2

[6] = test system: S. pneumoniae ATCC49619; experiment: as above; format: cell-based; settings: Streptococcus pneumoniae, ATCC49619; read-out: S. pneumoniae ATCC49619 MIC
In short: as §2

[7] = test system: CipR MRSA OC4222; experiment: Resistant strains assay (broth microdilution MIC); format: cell-based; settings: Staphylococcus aureus; CipR MRSA OC4222; read-out: MIC, Column G
Text: (§3) Testing protocols followed NCCLS methodology for broth microdilution assays.

[8] = test system: MRSA OC3726 (COL); experiment: Resistant strains assay (broth microdilution MIC); format: cell-based; settings: Staphylococcus aureus, read-out: MIC, Column C
Text: as §3

[9] = test system: MRSA OC2878; experiment: Resistant strains assay (broth microdilution MIC); format: cell-based; settings: Staphylococcus aureus, read-out: MIC, Column D
Text: as §3

[10] = test system: CipR MRSA OC5273; experiment: Resistant strains assay (broth microdilution MIC); format: cell-based; settings: Staphylococcus aureus, read-out: MIC, Column H
Text: as §3

[11] = test system: CipR MRSA OC4159; experiment: Resistant strains assay (broth microdilution MIC); format: cell-based; settings: Staphylococcus aureus, read-out: MIC, Column F
Text: as §3

[12] = target: T1, E. coli DNA gyrase (Escherichia coli, UniProt P0AES4+P0AES6); experiment: DNA gyrase inhibition assay (supercoiling); format: biochemical; settings: E. coli DNA gyrase supercoiling, visual inspection of gels; read-out: DNA Gyrase IC50 (converted)
T1 construct: purchased John Innes Enterprises Ltd. (John Innes Centre, UK)
T1 sequence (P0AES4 whole entry, one chain of several): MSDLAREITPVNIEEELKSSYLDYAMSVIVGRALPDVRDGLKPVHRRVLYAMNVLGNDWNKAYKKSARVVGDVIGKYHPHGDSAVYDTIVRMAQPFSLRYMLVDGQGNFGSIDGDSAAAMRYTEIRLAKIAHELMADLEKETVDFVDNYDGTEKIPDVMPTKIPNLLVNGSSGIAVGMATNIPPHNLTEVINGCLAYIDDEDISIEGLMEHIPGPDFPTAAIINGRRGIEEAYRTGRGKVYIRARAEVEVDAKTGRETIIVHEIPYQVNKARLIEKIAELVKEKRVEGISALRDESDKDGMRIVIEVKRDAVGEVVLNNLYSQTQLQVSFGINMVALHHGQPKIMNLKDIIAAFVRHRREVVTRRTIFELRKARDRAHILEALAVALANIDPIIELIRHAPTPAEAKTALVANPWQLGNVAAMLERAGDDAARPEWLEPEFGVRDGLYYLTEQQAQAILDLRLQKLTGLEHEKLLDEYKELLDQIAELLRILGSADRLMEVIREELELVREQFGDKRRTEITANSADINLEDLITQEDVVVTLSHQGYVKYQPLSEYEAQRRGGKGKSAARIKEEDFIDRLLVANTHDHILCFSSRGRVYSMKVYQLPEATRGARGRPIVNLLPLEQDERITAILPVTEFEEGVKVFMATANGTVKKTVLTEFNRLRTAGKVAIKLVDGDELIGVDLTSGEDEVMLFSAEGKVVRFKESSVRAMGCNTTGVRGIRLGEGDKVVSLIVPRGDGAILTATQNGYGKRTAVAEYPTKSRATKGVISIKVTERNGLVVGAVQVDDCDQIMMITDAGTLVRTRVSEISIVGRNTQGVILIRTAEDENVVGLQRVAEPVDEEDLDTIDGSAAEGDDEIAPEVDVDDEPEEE
In short: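 Relaxed pBR322 (250 ng) was supercoiled by 0.2 unit gyrase in Tris-HCl pH 7.5, KCl, MgCl2, DTT, spermidine, 1 mM ATP, glycerol, albumin, 0.5% DMSO final, 30 min at 37° C. Products were resolved on 1.0% agarose gels with ethidium bromide staining.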

[13] = target: T2, E. coli topoisomerase IV (Escherichia coli, UniProt P0AFI2+P20083); experiment: Topoisomerase IV inhibition assay (relaxation); format: biochemical; settings: E. coli topoisomerase IV relaxation, visual inspection of gels; read-out: Topoisomerase IV IC50 (converted)
T2 construct: purchased John Innes Enterprises Ltd. (John Innes Centre, UK)
T2 sequence (P0AFI2 whole entry): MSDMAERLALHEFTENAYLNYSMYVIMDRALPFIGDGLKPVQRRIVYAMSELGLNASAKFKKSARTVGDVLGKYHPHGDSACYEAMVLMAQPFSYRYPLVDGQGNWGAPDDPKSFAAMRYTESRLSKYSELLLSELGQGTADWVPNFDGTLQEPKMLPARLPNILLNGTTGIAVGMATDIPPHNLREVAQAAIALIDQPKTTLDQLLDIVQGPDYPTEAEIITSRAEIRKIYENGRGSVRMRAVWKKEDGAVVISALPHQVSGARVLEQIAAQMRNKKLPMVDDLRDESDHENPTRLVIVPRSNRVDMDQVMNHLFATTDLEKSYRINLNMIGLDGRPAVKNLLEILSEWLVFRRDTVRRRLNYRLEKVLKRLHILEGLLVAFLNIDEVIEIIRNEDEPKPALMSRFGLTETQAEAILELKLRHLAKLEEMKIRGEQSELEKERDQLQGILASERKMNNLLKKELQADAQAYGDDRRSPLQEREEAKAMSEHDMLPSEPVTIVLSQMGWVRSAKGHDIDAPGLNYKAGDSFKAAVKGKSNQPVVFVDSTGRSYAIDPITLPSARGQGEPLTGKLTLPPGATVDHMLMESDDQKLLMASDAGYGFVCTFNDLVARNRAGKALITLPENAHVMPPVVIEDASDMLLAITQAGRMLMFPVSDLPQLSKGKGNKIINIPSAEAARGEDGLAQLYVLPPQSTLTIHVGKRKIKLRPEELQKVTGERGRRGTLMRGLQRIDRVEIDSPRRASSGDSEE
T2 sequence (P20083 whole entry): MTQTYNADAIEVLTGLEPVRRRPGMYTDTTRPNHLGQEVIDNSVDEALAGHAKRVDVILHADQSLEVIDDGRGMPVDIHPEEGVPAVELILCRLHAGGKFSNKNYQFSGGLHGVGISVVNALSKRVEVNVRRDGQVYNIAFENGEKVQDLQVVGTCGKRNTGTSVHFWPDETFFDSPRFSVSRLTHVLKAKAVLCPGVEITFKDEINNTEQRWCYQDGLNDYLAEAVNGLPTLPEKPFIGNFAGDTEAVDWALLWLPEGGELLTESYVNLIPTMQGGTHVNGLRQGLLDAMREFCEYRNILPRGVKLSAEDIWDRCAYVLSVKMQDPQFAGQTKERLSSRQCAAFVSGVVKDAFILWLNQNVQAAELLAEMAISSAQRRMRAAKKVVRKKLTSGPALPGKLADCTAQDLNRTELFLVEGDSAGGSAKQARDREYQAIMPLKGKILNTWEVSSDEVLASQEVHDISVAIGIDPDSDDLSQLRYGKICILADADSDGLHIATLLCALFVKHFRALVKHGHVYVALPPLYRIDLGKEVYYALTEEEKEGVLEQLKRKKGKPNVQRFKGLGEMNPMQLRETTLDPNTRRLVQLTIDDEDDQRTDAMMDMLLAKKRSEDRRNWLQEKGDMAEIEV
Description: Inhibition of the relaxation activity of E. coli topoisomerase IV was determined using enzyme, buffers and substrates received from John Innes Enterprises Ltd. (John Innes Centre, UK). The reactions were performed according to the manufacturer's directions, with the following modifications.
DNA relaxation reactions were carried out in a total reaction volume of 20 μL, containing 300 ng of supercoiled pBR322, 40 mM HEPES-KOH (pH 7.6), 100 mM potassium glutamate, 10 mM Mg(OAc)2, 10 mM DTT, 4 μg/mL tRNA, 2 mM ATP, and 50 μg/mL BSA. Compounds, diluted in 10% DMSO, were added to the reaction mixture to reach a final concentration of 0.5% DMSO. Enzyme was diluted to 0.45 unit/μL in a solution of 40 mM HEPES-KOH (pH 7.6), 150 mM potassium glutamate, 1 mM DTT, 1 mM EDTA, and 40% glycerol. Diluted enzyme (0.9 unit) was added to each reaction.
The reactions were incubated at 37° C. for 45 min. The reactions were then cooled to 0° C. followed by addition of 3 μL of 40% glycerol, 100 mM Tris-HCl (pH 7.5), 50 mM EDTA, 0.5% SDS and 0.1% bromophenol blue. Samples were separated on 1.0% agarose gels. Gels were stained with Ethidium bromide and photographed with a Stratagene Eagle Eye II.

With `O=C(O)c1cn(C2CC2)c2cc(N3CCNCC3)c(F)cc2c1=O` [Ciprofloxacin, reference compound] the MIC [1] was 0.25 to 0.5 µg/mL (≈ 0.754 to 1.51 µM), the MIC [2] was 0.25 to 0.5 µg/mL (≈ 0.754 to 1.51 µM) and the MIC ([3]; CipR MRSA OC3946) was 16 µg/mL (≈ 48.3 µM).
`COc1ccc2nccc(-n3cc4c(n3)CCC(NC(=O)c3ccc5c(c3)NC(=O)CS5)C4)c2n1` (stereo not shown) [Example 4, 3-Oxo-3,4-dihydro-2H-benzo[1,4]thiazine-6-carboxylic acid [2-(6-methoxy-[1,5]naphthyridin-4-yl)-4,5,6,7-tetrahydro-2H-indazol-5-yl]-amide] was tested, and the MIC [1] was 1 µg/mL (≈ 2.06 µM), the MIC [2] was 0.06 µg/mL (≈ 0.123 µM) and the MIC ([3]; CipR MRSA OC3946) was 0.007 µg/mL (≈ 0.0144 µM). The MIC [4] was > 128 µg/mL, the MIC [5] was 0.06 µg/mL (≈ 0.123 µM) and the MIC [6] was 4 µg/mL (≈ 8.22 µM). For the same compound, the MIC [7] was 0.5 µg/mL (≈ 1.03 µM), the MIC ([8]; MRSA OC3726 (COL)) was 0.062 µg/mL (≈ 0.127 µM) and the MIC ([9]; MRSA OC2878) was 0.031 µg/mL (≈ 0.0637 µM). The MIC [10] was 0.062 µg/mL (≈ 0.127 µM), the MIC [11] was 0.5 µg/mL (≈ 1.03 µM) and the IC50 [12] was 514 nM. It also gave an IC50 [13] of 514 nM.
`COc1ccc2nccc(-n3cc4c(n3)CCC(NC(=O)c3cc5c(cc3F)SCC(=O)N5)C4)c2n1` (stereo not shown) [Example 5, 7-Fluoro-3-oxo-3,4-dihydro-2H-benzo[1,4]thiazine-6-carboxylic acid [2-(6-methoxy-[1,5]naphthyridin-4-yl)-4,5,6,7-tetrahydro-2H-indazol-5-yl]-amide] showed an MIC [1] of 0.031 µg/mL (≈ 0.0614 µM), an MIC [2] of 0.25 µg/mL (≈ 0.495 µM) and an MIC ([3]; CipR MRSA OC3946) of 0.007 µg/mL (≈ 0.0139 µM). For the same compound, the MIC [4] was 128 µg/mL (≈ 254 µM), the MIC [5] was 0.25 µg/mL (≈ 0.495 µM) and the MIC [6] was 2 µg/mL (≈ 3.96 µM). The MIC [7] was 0.015 µg/mL (≈ 0.0297 µM), the MIC ([8]; MRSA OC3726 (COL)) was 0.062 µg/mL (≈ 0.123 µM) and the MIC ([9]; MRSA OC2878) was 0.031 µg/mL (≈ 0.0614 µM). It also gave an MIC [10] of 0.031 µg/mL (≈ 0.0614 µM), an MIC [11] of 0.007 µg/mL (≈ 0.0139 µM) and an IC50 [12] of 238 nM. For the same compound, the IC50 [13] was 248 nM.
Work on `COc1ccc2nccc(-n3cc4c(n3)CCC(NC(=O)c3ccc5c(c3)NC(=O)CS5)C4)c2c1` (stereo not shown) [Example 17, 3-Oxo-3,4-dihydro-2H-benzo[1,4]thiazine-6-carboxylic acid [2-(6-methoxy-quinolin-4-yl)-4,5,6,7-tetrahydro-2H-indazol-5-yl]-amide] yielded an MIC [1] of 0.062 µg/mL (≈ 0.128 µM), an MIC [2] of 0.25 µg/mL (≈ 0.515 µM) and an MIC ([3]; CipR MRSA OC3946) of 0.015 µg/mL (≈ 0.0309 µM). The MIC [4] was 4 µg/mL (≈ 8.24 µM), the MIC [5] was 0.25 µg/mL (≈ 0.515 µM) and the MIC [6] was 2 µg/mL (≈ 4.12 µM). It also gave an MIC [7] of 0.062 µg/mL (≈ 0.128 µM), an MIC ([8]; MRSA) of 0.125 µg/mL (≈ 0.257 µM) and an MIC ([9]; MRSA) of 0.125 µg/mL (≈ 0.257 µM). The MIC [10] was 0.25 µg/mL (≈ 0.515 µM), the MIC [11] was 0.031 µg/mL (≈ 0.0638 µM) and the IC50 [12] was 247 nM. For the same compound, the IC50 [13] was 257 nM.
For `COc1ccc2nccc(-n3cc4c(n3)CCC(NC(=O)c3cc5c(cc3F)SCC(=O)N5)C4)c2c1` (stereo not shown) [Example 18, 7-Fluoro-3-oxo-3,4-dihydro-2H-benzo[1,4]thiazine-6-carboxylic acid [2-(6-methoxy-quinolin-4-yl)-4,5,6,7-tetrahydro-2H-indazol-5-yl]-amide], the MIC [1] was 0.25 µg/mL (≈ 0.496 µM), the MIC [2] was 0.031 µg/mL (≈ 0.0616 µM) and the MIC ([3]; CipR MRSA OC3946) was 0.015 µg/mL (≈ 0.0298 µM). The MIC [4] was 4 µg/mL (≈ 7.94 µM), the MIC [5] was 0.03 µg/mL (≈ 0.0596 µM) and the MIC [6] was 1 µg/mL (≈ 1.99 µM). The MIC [7] was 0.031 µg/mL (≈ 0.0616 µM), the MIC ([8]; MRSA OC3726 (COL)) was 0.062 µg/mL (≈ 0.123 µM) and the MIC ([9]; MRSA OC2878) was 0.062 µg/mL (≈ 0.123 µM). For the same compound, the MIC [10] was 0.062 µg/mL (≈ 0.123 µM), the MIC [11] was 0.031 µg/mL (≈ 0.0616 µM) and the IC50 [13] was 496 nM.
`O=C1CSc2ccc(C(=O)NC3CCc4nn(-c5cccc6cccnc56)cc4C3)cc2N1` (stereo not shown) [Example 31, 3-Oxo-3,4-dihydro-2H-benzo[1,4]thiazine-6-carboxylic acid (2-quinolin-8-yl-4,5,6,7-tetrahydro-2H-indazol-5-yl)-amide] showed an MIC [1] of 16 µg/mL (≈ 35.1 µM), an MIC [2] of 0.25 µg/mL (≈ 0.549 µM) and an MIC ([3]; MRSA) of 0.125 µg/mL (≈ 0.274 µM). For the same compound, the MIC [4] was 16 µg/mL (≈ 35.1 µM), the MIC [5] was 0.25 µg/mL (≈ 0.549 µM) and the MIC [6] was 4 µg/mL (≈ 8.78 µM). For the same compound, the MIC [7] was 4 µg/mL (≈ 8.78 µM), the MIC ([8]; MRSA OC3726 (COL)) was 0.5 µg/mL (≈ 1.1 µM) and the MIC ([9]; MRSA OC2878) was 0.25 µg/mL (≈ 0.549 µM). It also gave an MIC [10] of 0.5 µg/mL (≈ 1.1 µM), an MIC [11] of 4 µg/mL (≈ 8.78 µM) and an IC50 [12] of 4390 nM. The IC50 [13] was 274 nM.
